Experimental data taken from patent US11786447B2, “Conditioner composition comprising a chelant” (The Procter & Gamble Company, priority 2016, dated 2023).

Assay: Measurement of copper on hair after shampoo/rinse-off conditioner wash cycles (ICP-OES)
Settings: picolinic acid in the rinse-off conditioner; after 20 clarifying shampoo/rinse-off conditioner cycles
Procedure: All testing are performed on colored hair switches (see Method of Measurement of copper on hair below) weighing approximately 4.0 grams and having a length of approximately 6 inches. The hair switches are commercially available from IHIP (International Hair Importers). Three hair switches per shampoo composition are used. An amount of […] of shampoo is spread via a syringe onto separate hair switch. That is, the dosage is 0.10 g of shampoo per g of hair. Each application consists of adding shampoo to the hair, milking for 30 seconds followed by rinsing for 30 seconds. Shampoo is then reapplied (0.1 g/g), milked for 30 seconds and rinsed for 30 seconds. Excess water is squeezed from the hair switches and left to air dry or treated with a rinse-off conditioner and/or a leave-on treatment composition. This protocol is repeated for a number of times/cycles (as indicated in the tables below, which describe the details of hair treatments).
All testing are performed on colored hair switches (see Method of Measurement of copper on hair below) weighing approximately 4.0 grams and having a length of approximately 6 inches. […]
Samples of 100 mg of hair were digested overnight with 2 ml of high purity concentrated nitric acid. […] Copper content of the hair switches was determined by inductively coupled plasma atomic spectroscopy (ICP-OES)). For each leg, 3 different samples were analyzed. […]

SMILES: O=C(O)c1ccccn1 [picolinic acid]
- Removal of copper from hair compared to clarifying shampoo/control rinse-off conditioner: effective removal of copper from hair
